Measurements as given in patent publication US10813859B2, “Wrinkle ameliorating agent” (POLA CHEMICAL INDUSTRIES, INC., priority 2016, dated 2020).

Experiments:
[1] = test system: hyaluronan synthetase gene (HAS1) in normal human epidermal keratinocyte; assay: Test for confirming expression-increasing effect of epidermal hyaluronan synthetase gene; type: cell-based; conditions: 0.2% by mass in medium, 24 hours; qPCR, ACTB internal standard; FIG. 5
Description: Normal human epidermal keratinocyte (produced by Kurabo Industries Ltd.) was inoculated in a 24-well plate at […] cells/well, and incubated overnight at 37° C. in a 5% CO2 environment. The culture medium was exchanged with a medium containing 0.2% by mass of Compound 1, or glycerol (produced by Wako Pure Chemical Industries, Ltd.) and cultured at 37° C. in a 5% CO2 environment for 24 hours.
Using a mRNA recovery kit (FastLane Cell SYBR Green Kit, produced by Qiagen N.V.), mRNA was extracted by a conventional method. Using a qPCR kit (One Step SYBR PrimeScript RT-PCR Kit II, produced by Takara Bio Inc.), the expression level of the hyaluronan synthetase gene (HAS 1) was analyzed by qPCR using ACTB as an internal standard (7500 Real-Time PCR System, produced by Applied Biosystems). Data analysis was carried out by the ΔΔCt method.
The respective relative values were calculated with respect to the expression level of the gene in a medium not containing Compound 1 and glycerol (non-addition group) as 1.

[2] = Moisture absorbing property confirmation test; type: physicochemical; conditions: humidity 75%, 25° C.
Description: Compound 1 was precisely weighed in a 1 g weighing bottle, left in a desiccator with a humidity at 75% (a saturated aqueous solution of sodium chloride) in an open state, and stored at 25° C. The weight was measured from the start of the storage until 30 days thereafter, and the coefficient of moisture absorption was determined by the following formula. Coefficient of moisture absorption (%)=(M3−M2)/(M2−M1)×100
M1: The mass of the weighing bottle (g)
M2: The mass of the weighing bottle containing a sample at the start of the storage (g)
M3: The mass of the weighing bottle containing the sample after the storage (g)

Compound | expression level of the hyaluronan synthetase gene (HAS 1) compared to the non-addition group [1] | moisture absorbing property ([2]; up to 30 days) | Coefficient of moisture absorption (mean value, n = 3) ([2]; storage time 1 day) [%] | Coefficient of moisture absorption (mean value, n = 3) ([2]; storage time 3 days) [%] | Coefficient of moisture absorption (mean value, n = 3) ([2]; storage time 7 days) [%] | Coefficient of moisture absorption (mean value, n = 3) ([2]; storage time 14 days) [%] | Coefficient of moisture absorption (mean value, n = 3) ([2]; storage time 30 days) [%]
OCC(O)COC1CCCCC1 (centres unmarked) [Compound 1, 3-cyclohexyloxy-1,2-propanediol] | significantly larger | confirmed | 13.2 | 19.0 | 20.5 | 21.0 | 21.2
OCC(O)CO [glycerol, reference compound] | no significant difference | – | – | – | – | – | –
